Assay results from patent US20230149338A1, “DIAGNOSIS AND TREATMENT OF ADDICTION” (The Regents of the University of California, priority 2020, published 2023).
“Also recorded” adds a separate entry of the source.

Assays:
Assay type in all cases: in vivo, rat
Fos+ neurons = assay: Fos immunohistochemistry, quantification of Fos+ neuronal ensembles
Protocol: Two hours later, the rats were injected with either saline (OXY and OXY+ABX groups) or 1 mg/kg naloxone (WD, WD+ABX, and SAL groups) to maintain intoxication or precipitate withdrawal, respectively. Brains were collected 90 min after the injection of naloxone or saline to produce both intoxicated and withdrawal groups. The rats were deeply anesthetized and perfused with 100 mL of phosphate-buffered saline (PBS) followed by 100 mL of 4% paraformaldehyde (PFA). Brains were postfixed in 4% PFA overnight and transferred to 30% sucrose in a PBS/0.1% azide solution at 4° C. for 2 days. Brains were frozen in powdered dry ice for 15-30 s and then sectioned coronally at 40 μm thickness throughout the brain using a cryostat. Representative sections were quantified from the following regions at the following coordinates according to the (Paxinos 2007) rat brain atlas: PVT (bregma −3.36), LHb (bregma −3.36), BLA (bregma −3.12), CeA (bregma −3.12), PAG (bregma −5.76), anterior agranular insula bregma (+3.00), BNST (bregma 0.00), and LC (bregma −9.16).
The sections were washed in PBS for 10 min three times and then incubated in 1% H2O2/PBS for 20 min to quench endogenous peroxidase activity. The sections were then rinsed for 10 min three times in PBS and incubated in blocking solution (PBS+0.3% TritonX-100, 1 mg/mL bovine serum albumin, and 5% normal donkey serum) for 1 h. The sections were then incubated for 24 h at room temperature with rabbit monoclonal anti-Fos antibody (Cell Signaling Technologies, catalog no. 2250, RRID: AB_2247211) diluted 1:1000 in PBS/0.5% Tween-20 and 5% normal donkey serum. Following incubation with the primary antibody, the sections were washed for 10 min three times in PBS and incubated for 2 h in undiluted rabbit ImmPress horseradish peroxidase reagent (Vector Laboratories, catalog no. MP-7451, RRID: 2631198).
The sections were then washed in PBS for 10 min three times and then developed for 6 min in Vector peroxidase 3,3′-diaminobenzidine (DAB) substrate (Vector Laboratories, catalog no. SK-4100, RRID: 2336382) enhanced with nickel chloride. Following rinses in PBS for 10 min three times, the sections were mounted on Fisher Super Frost Plus slides, air dried, and coverslipped with PVA-DABCO (Sigma Aldrich, catalog no. 10981). Following coverslipping, images were acquired using a Keyence BZX700 fluorescent microscope and analyzed using Fiji software.
Quantitative analysis to obtain unbiased estimates of the total number of Fos+positive cell bodies was performed using Fiji software with the Analyze Particles module (Schindelin et al. 2012). Slides were imaged on a Keyence BZX700 slide scanner and stitched at 2[…] magnification. Three sections were bilaterally analyzed for each rat and then averaged per animal (counted as n=1). A total of 4-6 animals of each sex per group were analyzed. Cell numbers were normalized to the area of the region of interest.

Sprague-Dawley rats [1] = assay: Mechanical nociceptive von Frey test, passive oxycodone injection model
Protocol: (§1) The rats were subjected to microbiome depletion using a cocktail of non-absorbable antibiotics in their drinking water. Control rats were given regular drinking water. […] Withdrawal was precipitated at the end of the injection paradigm with a subcutaneous injection of naloxone (1 mg/kg) in the saline (SAL) group, withdrawal (WD) group, and antibiotic-treated withdrawal (WD+ABX) group. For the intoxication state, the rats were given a saline injection at the same time as the naloxone group. The OXY group included animals that were not treated with antibiotics in the intoxicated state, and the OXY+ABX group included animals that were treated with antibiotics in the intoxicated state. […] The rats were sacrificed and perfused 90 min after the naloxone injection in the WD, WD+ABX, and SAL groups and after 90 min following the saline injection (matched with the naloxone injection time point) in the OXY and OXY+ABX groups. Brains were then cryopreserved and stained for Fos expression.
Mechanical nociception, reflected by hindpaw withdrawal thresholds, was determined by an observer who was blind to the experimental groups using von Frey filaments that ranged from 3.63 to 281.838 g as previously reported (Dixon 1965, Kononoff et al. 2018). A test session began after 10 min of habituation to the testing environment immediately following the subcutaneous injection of naloxone (WD, WD+ABX, and SAL groups) or saline (OXY and OXY+ABX groups). […] The 50% paw withdrawal threshold was determined by the formula Xf+kδ, where Xf is the last von Frey filament applied, k is the Dixon value that corresponded to the response pattern, and […] is the mean difference between stimuli. Once the threshold was determined for the left hindpaw, the same testing procedure was repeated for the right hindpaw after 5 min. Paw withdrawal thresholds were recorded at baseline, during intoxication, and during precipitated withdrawal.

Bacteroidetes = assay: 16S RNA sequencing of feces: Bacteroidetes abundance
Protocol: (§2) At each time point, approximately two fecal pellets were harvested and put directly into a cryovial, which was placed on powered dry ice. The pellets were then stored at −80° C. until processing for sequencing. At the time of DNA extraction, feces were thawed and extracted with the Qiagen DNeasy powersoil kit. The samples are then amplified by PCR in triplicate and then pooled. The 16S V4 gene was amplified using universal primers ([…]). Each sample was normalized to 240 ng per sample and purified. After purification, the A260/A280 ratio of the final pool was recorded to ensure purity, with a tolerance range of 1.8-2.0. The barcoded amplicons from all of the samples were normalized, pooled to construct the sequencing library, and sequenced using an Illumina MiSeq sequencer. The sequencing primers were the following: […]
(§3) After sequencing, the raw files were prepared, filtered for quality, and demultiplexed. Operational taxonomic units (OTUs) were selected using open-reference OUT picking based on 97% sequence similarity to the Greengenes database. Taxonomy assignment and rarefaction were performed using Qiita with 15,000 reads per sample (Gonzalez et al. 2018). The alpha diversity was measured using both the Shannon diversity index and Chao1 index and compared between baseline and treatment conditions. […]

Firmicutes = assay: 16S RNA sequencing of feces: Firmicutes abundance
Protocol: as §2, §3

Sprague-Dawley rats [2] = assay: Withdrawal score after naloxone-precipitated withdrawal
Protocol: as §1
To precipitate withdrawal, the rats were subcutaneously injected with naloxone and then placed in a Plexiglas observation chamber.
Withdrawal symptoms were categorized using a scale that was modified from (Gellert et al. 1978) and (Cicero et al. 2002). Graded signs of withdrawal were scored as the following: wet dog shakes (1 or 2 shakes=2; 3 or 4 shakes=3; […] shakes=4) and escape attempts (2-4 attempts=1; 5-9 attempts=2; ≥10 attempts=3). The following behaviors were measured per instance: abnormal posture/writhing, teeth chattering, ptosis (drooping eyelids), diarrhea, profuse salivation, urination, swallowing movements, and chromodacyorrhea (red tears). The total withdrawal score was calculated as the sum of all of the individual withdrawal scores. Immediately after withdrawal testing, all of the rats were returned to standard cages and given unrestricted access to food and water.

microbiome = assay: 16S RNA sequencing of feces: alpha diversity and phyla; conditions: post-treatment
Protocol: as §2, §3

[3] = oxycodone + naloxone withdrawal vs SAL and OXY groups
[4] = oxycodone + naloxone withdrawal vs SAL group
[5] = withdrawal compared with the control group

## COc1ccc2c3c1O[C@H]1C(=O)CC[C@@]4(O)[C@@H](C2)N(C)CC[C@]314 [oxycodone, Oxycodone]
Fos+ neurons; oxycodone + naloxone withdrawal vs OXY and SAL groups
  number of Fos+ neurons, BLA, WD group: significant decrease in Fos+ neurons compared with the OXY group but no difference from the SAL group
Fos+ neurons; [3]
  number of Fos+ neurons, BNST, WD group: significant increase in the number of Fos+ neurons; also recorded: significant decrease in the number of Fos+neurons compared with the WD and WD+ABX groups
  number of Fos+ neurons, LHb, WD group: significant increase in the number of Fos+neurons
  number of Fos+ neurons, PAG, WD group: significant increase in Fos+ neurons
  number of Fos+ neurons, PVT, WD group: significant increase in Fos+ positive neurons; also recorded: significant decrease in the number of Fos+ neurons in the SAL group compared with the WD and WD+ABX groups
  number of Fos+ neurons, anterior insula, WD group: significant increase in the number of Fos+ neurons
Fos+ neurons; [4]
  number of Fos+ neurons, CeA, WD group: significant difference between the SAL and WD groups
  number of Fos+ neurons, LC, WD group: significant difference between the SAL group and the WD and WD+ABX groups
Fos+ neurons; [5]
  increase in the number of Fos+ neurons, LC: 475%
  increase in the number of Fos+ neurons, LHb: 712%
  increase in the number of Fos+ neurons, PVT: 289%
Fos+ neurons; withdrawal, antibiotic-treated animals compared with the control group
  increase in the number of Fos+ neurons, lateral BNST: 1272%
Sprague-Dawley rats [1]; WD and WD+ABX groups, naloxone-precipitated withdrawal
  decrease in pain thresholds: 64%
Sprague-Dawley rats [1]; oxycodone 2 mg/kg s.c. every 12 h, intoxicated animals vs saline, withdrawal groups and baseline
  von Frey pain threshold during oxycodone intoxication: significantly higher von Frey scores; also recorded: higher pain thresholds
Sprague-Dawley rats [1]; oxycodone-dependent rats, naloxone 1 mg/kg precipitated withdrawal, vs saline, intoxication, baseline
  von Frey pain threshold during withdrawal: significantly lower von Frey scores; also recorded: lower pain thresholds
Bacteroidetes; OXY group or OXY+ABX group compared with the matched SAL group
  change in Bacteroidetes after treatment: −19.01%
Bacteroidetes; post-treatment, OXY+ABX vs water and OXY groups, OXY vs SAL
  Bacteroidetes at the phylum level, group comparison: No difference in Bacteroidetes
Firmicutes; OXY group or OXY+ABX group compared with the matched saline group
  change in Firmicutes after treatment: 38.5%
Firmicutes; post-treatment, OXY+ABX vs SAL and OXY groups, OXY vs SAL
  Firmicutes at the phylum level, group comparison: No difference in Firmicutes
Sprague-Dawley rats [2]; WD and WD+ABX groups
  increase in withdrawal signs: 1420%
Sprague-Dawley rats [2]; oxycodone intoxication
  withdrawal score, intoxicated vs saline animals: No significant difference in withdrawal scores
Sprague-Dawley rats [2]; oxycodone-dependent rats, naloxone-precipitated withdrawal, vs saline and intoxicated animals
  total withdrawal score during withdrawal: significantly higher withdrawal scores
microbiome
  alpha diversity, Chao1 test, OXY vs SAL group: no difference in alpha diversity
